Measured values as given in article PMC7524867, “Identification of Novel Inhibitors of a Plant Group A Protein Phosphatase Type 2C Using a Combined In Silico and Biochemical Approach” (Frontiers in Plant Science, 2020).

Experiments:
Assay type in all cases: biochemical
ABI1 [1] = target: T1, ABI1 (Arabidopsis thaliana, UniProt P49597); experiment: Ser/Thr phosphatase assay, single dose […]; set-up: recombinant His- or GST-tagged ABI1
T1 sequence (P49597 1-434): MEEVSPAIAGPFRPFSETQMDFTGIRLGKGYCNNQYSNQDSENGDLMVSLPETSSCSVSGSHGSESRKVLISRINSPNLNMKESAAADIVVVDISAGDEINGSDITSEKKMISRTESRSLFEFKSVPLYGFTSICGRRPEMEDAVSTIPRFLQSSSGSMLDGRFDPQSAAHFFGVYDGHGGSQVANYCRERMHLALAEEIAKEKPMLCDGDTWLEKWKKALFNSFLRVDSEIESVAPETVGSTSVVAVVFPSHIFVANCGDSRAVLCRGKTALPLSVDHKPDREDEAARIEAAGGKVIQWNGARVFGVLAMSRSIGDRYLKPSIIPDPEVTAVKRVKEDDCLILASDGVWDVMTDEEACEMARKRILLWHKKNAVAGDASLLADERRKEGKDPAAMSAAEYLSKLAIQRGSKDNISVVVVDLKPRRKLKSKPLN

ABI1 [2] = target: T1, ABI1; experiment: Ser/Thr phosphatase assay, single dose […]; set-up: His-ABI1
ABI1 [3] = target: T1, ABI1; experiment: Ser/Thr phosphatase assay (Promega) with phosphopeptide substrate, six-concentration IC50; set-up: recombinant His- or GST-tagged ABI1
ABI2 = target: T2, ABI2 (Arabidopsis thaliana, UniProt O04719); experiment: Ser/Thr phosphatase assay at […] compound; weaker than on ABI1
T2 construct: recombinant His- or GST-tagged ABI2
T2 sequence (O04719 1-423): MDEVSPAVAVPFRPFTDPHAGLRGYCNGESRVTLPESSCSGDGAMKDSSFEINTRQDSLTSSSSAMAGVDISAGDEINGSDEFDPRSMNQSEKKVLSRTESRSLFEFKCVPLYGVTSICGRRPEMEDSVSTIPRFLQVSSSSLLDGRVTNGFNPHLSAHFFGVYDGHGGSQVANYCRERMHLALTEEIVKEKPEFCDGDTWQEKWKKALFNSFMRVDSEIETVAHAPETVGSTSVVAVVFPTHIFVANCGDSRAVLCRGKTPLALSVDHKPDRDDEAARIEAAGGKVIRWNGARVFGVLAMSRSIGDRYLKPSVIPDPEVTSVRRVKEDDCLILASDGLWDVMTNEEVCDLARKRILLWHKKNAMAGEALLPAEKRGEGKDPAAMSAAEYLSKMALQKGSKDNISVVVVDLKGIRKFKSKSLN

In the case of ZINC04545840, the “% inhibition at 100 μM” value (ABI1 [1]) is reported as 42.6.
COc1cccc(-n2cc(C(=O)Nc3cc(C)ccc3OC)c3ccccc3c2=O)c1 [ZINC09438755] was tested, and the “Ser/Thr phosphatase assay, single dose 100 μM” value (ABI1 [2]) was “Only two molecules ZINC33009768 and ZINC09438755 were found to have significant inhibitory activity”.
In the case of NCCOc1cc(C(=O)Nc2cc(OCCN)c3ccccc3n2)nc(C(=O)Nc2cc(OCCN)c3ccccc3n2)c1 [ZINC59151964, 4-(2-aminoethoxy)-N2,N6-bis[4-(2-aminoethoxy)-2-quinolinyl]-2,6-pyridinedicarboxamide], the IC50 (ABI1 [3]) is reported as 54 ± 8 µM and the “Ser/Thr phosphatase assay at 100 μM compound; weaker than on ABI1” value (ABI2) is reported as “ZINC59151964 is more efficient against ABI1 than ABI2”.
COC(=O)c1ccccc1NC(=O)Nc1cc(NC(=O)c2ccc(F)cc2)ccc1N1CCCC1 [ZINC33009768] was tested, and the “Ser/Thr phosphatase assay, single dose 100 μM” value (ABI1 [2]) was “Only two molecules ZINC33009768 and ZINC09438755 were found to have significant inhibitory activity”.
